Test results reported in publication PMC6968685 (Journal of Enzyme Inhibition and Medicinal Chemistry, 2020).
Read-outs that look alike come from different tables or passages of the source.

Columns and labels:
[1] = test system: P. falciparum CQ-sensitive strain 3D7; assay: In vitro antiplasmodial activity, SYBR Green I fluorescence-based method, strain 3D7; format: cell-based; settings: for IC50: Plasmodium falciparum, chloroquine-sensitive strain 3D7, 48 h incubation, read-out: P. falciparum strains IC50 values, 3D7; for Selectivity index HepG2/3D7: SI = CC50 HepG2 / IC50 P. falciparum 3D7
Procedure: The in vitro antiplasmodial activities were tested over concentrations ranging from […] against culture-adapted P. falciparum reference strains 3D7 and W2. […] The parasites were cultivated in RPMI medium (Sigma-Aldrich, Lyon, France) supplemented with 0.5% Albumax I (Life Technologies Corporation, Paisley, UK), hypoxanthine (Sigma-Aldrich), and gentamicin (Sigma-Aldrich) with human erythrocytes and were incubated at 37 °C in a candle jar, as described previously[43] .The P. falciparum drug susceptibility test was carried out in 96-well flat-bottom sterile plates in a final volume of 250 µl. After 48 h incubation period with the drugs, quantities of DNA in treated and control cultures of parasites in human erythrocytes were quantified using the SYBR Green I (Sigma-Aldrich) fluorescence-based method[44]^,[45]. Briefly, after incubation, plates were frozen at −20 °C until use. Plates were then thawed for 2 h at room temperature, and 100 µl of each homogenised culture was transferred to a well of a 96-well flat-bottom sterile black plate (Nunc, Inc., Rochester, NY) that contained 100 µl of the SYBR Green I lysis buffer (2xSYBR Green, 20 mM Tris base pH 7.5, 5 mM EDTA, 0.008% w/v saponin, 0.08% w/v Triton X-100). […] Plates were incubated for 1 h at room temperature and then read on a fluorescence plate reader (Tecan, Grödig, Austria) using excitation and emission wavelengths of 485 and 535 nm, respectively. IC50 values were calculated by non-linear regression analysis of data from dose-response curves, using TableCurve 2D version 5.0 software (Systat Software, San Jose, CA). IC50 values are reported as means calculated from three independent experiments.

[2] = test system: L. donovani (MHOM/IN/00/DEVI) promastigotes; assay: In vitro antileishmanial activity, MTT assay on promastigotes; format: cell-based; settings: Leishmania donovani, 72 h incubation, ≥10 = no activity noted at the highest concentration tested
Procedure: L. donovani (MHOM/IN/00/DEVI) used in this study was provided by the CNR Leishmania (Montpellier, France). The effects of the tested compounds on the growth of L. donovani (MHOM/IN/00/DEVI) promastigotes were assessed by MTT assay. Briefly, promastigotes in log-phase in Schneider’s medium supplemented with 20% foetal calf serum (FCS), 2 mM L-glutamine and antibiotics (100 U/ml penicillin and 100 µg/ml streptomycin), were incubated at an average density of 10^6 parasites/ml in sterile 96-well plates with various concentrations of compounds dissolved in DMSO (final concentration less than 0.5% v/v), in duplicate. Appropriate controls treated with DMSO and amphotericin B (reference drug purchased from Sigma-Aldrich) were added to each set of experiments. After 72 h incubation period at 27 °C, parasite metabolic activity was determined. Each well was microscopically examined for precipitate formation. To each well was added 20 µl of 5 mg/ml MTT [3–(4,5-dimethylthiazol-2-yl)-2,5-diphenyltetrazolium bromide)] solution followed by 4 h incubation time. The enzyme reaction was stopped by addition of 100 µl of 50% isopropanol/10% sodium dodecyl sulfate. Plates were vigorously shaken (300 rpm) for 10 min, and the absorbance was measured at 570 nm in a BIO-TEK ELx808 Absorbance Microplate Reader. […] IC50 of the parasite’s growth (half maximal inhibitory concentration or IC50 values) were then calculated from the obtained experimental results using a previously described regression programme.

[3] = test system: T. brucei brucei AnTat 1.9; assay: In vitro antitrypanosomal activity, Alamar Blue assay; format: cell-based; settings: for Selectivity index HepG2/Tryp.: SI = CC50 HepG2 / IC50 Trypanosoma brucei brucei; for IC50: Trypanosoma brucei, slender bloodstream trypomastigotes, AnTat 1.9 strain, read-out: Trypanosoma brucei brucei IC50 values, Trypanos Antat 1.9
Procedure: The effects of the tested compounds on the growth of T. brucei brucei were assessed using an Alamar Blue® assay described by Räz et al.[49] T. brucei brucei AnTat 1.9 (IMTA, Antwerpen, Belgium) was cultured in MEM with Earle’s salts, supplemented according to the protocol of Baltz et al.[50] with the following modifications: 0.5 mM mercaptoethanol (Sigma Aldrich), 1.5 mM L-cysteine (Sigma Aldrich), 0.05 mM bathocuproine sulphate (Sigma Aldrich), and 20% heat-inactivated horse serum (Gibco, France) at 37 °C and 5% CO2. Samples were incubated at an average density of 2000 parasites/well in sterile 96-wells plates (Fisher, France) with various concentrations of compounds dissolved in 0.9% NaCl. All doses were tested in duplicate. Appropriate controls treated with solvents 0.9% NaCl or DMSO or with suramin, pentamidine, eflornithine, and fexinidazole (reference drugs purchased from Sigma Aldrich and Fluorochem, UK) were added to each set of experiments. After 69 h incubation period at 37 °C, 10 µl of the viability marker Alamar Blue (Fisher) was added to each well, and the plates were incubated for 5 h. The plates were read in a PerkinElmer ENSPIRE (Germany) microplate reader using an excitation wavelength of 530 nm and an emission wavelength of 590 nm. […] IC50 values were calculated using a nonlinear regression analysis of dose-response curves performed using GraphPad Prism software (La Jolla, CA). IC50 values were calculated from three independent experiments.

[4] = Cytotoxicity evaluation, MTT; format: cell-based, human; settings: human
Procedure: These cells are a commonly used human hepatocarcinoma-derived cell line that has characteristics similar to those of primary hepatocytes. These cells express many hepatocyte-specific metabolic enzymes, thus enabling the cytotoxicity of tested product metabolites to be evaluated. […] Duplicate assays were performed for each sample. Each well was microscopically examined for precipitate formation before the medium was aspirated from the wells. After aspiration, 100 µl of MTT solution (0.5 mg/ml in medium without FCS) were then added to each well. […] The MTT solution was removed, and DMSO (100 µl) was added to dissolve the resulting blue formazan crystals. Plates were shaken vigorously (300 rpm) for 5 min. The absorbance was measured at 570 nm with 630 nm as reference wavelength in a BIO-TEK ELx808 Absorbance Microplate Reader. DMSO was used as blank and doxorubicin (Sigma Aldrich) as positive control. Cell viability was calculated as percentage of control (cells incubated without compound). The CC50 was determined from the dose-response curve using the TableCurve 2D version 5.0 software (Systat Software, San Jose, CA)

Structure (SMILES) | IC50 [1] [µM] | IC50 [2] [µM] | IC50 [3] [µM] | Selectivity index HepG2/3D7 [1] | Selectivity index HepG2/Tryp. [3] | CC50 at 72 h [4] [µM] | CC50 at 72 h ([4]; HepG2 cells, 72 h, read-out: Cytotoxicity to HepG2 cells CC50 values) [µM]
COc1cccc2c1C(=O)c1c(O)c3c(c(O)c1C2=O)C[C@@](O)(C(=O)CO)C[C@@H]3O[C@H]1C[C@H](N)[C@H](O)[C@H](C)O1 [Doxorubicin, reference compound] | – | – | – | – | – | – | 0.06 ± 0.02
CN(C)CCCNCc1cccc(-c2cc(-c3cccc(CNCCCN(C)C)c3)c3ccccc3n2)c1 [Compound 1q, 2,4-Bis{3-[(3-dimethylaminopropyl)aminomethyl]phenyl}quinoline] | 1.44 ± 0.128 | ≥ 10 | 1.3 ± 0.101 | 4.68 | 5.18 | 6.74 ± 0.7 | –
c1ccc2c(-c3ccc(CNCCN4CCOCC4)cc3)cc(-c3ccc(CNCCN4CCOCC4)cc3)nc2c1 [Compound 1h, 2,4-Bis{4-[(2-morpholinoethyl)aminomethyl]phenyl}quinoline] | 1.34 ± 0.173 | ≥ 10 | 1.59 ± 0.071 | 3.36 | 2.83 | 4.5 ± 0.4 | –
NCCCC(N)(C(=O)O)C(F)F (centres unmarked) [Eflornithine, reference compound] | – | – | 15.2 ± 0.64 | – | – | – | –
C[C@@H]1[C@H](O)[C@@H](C)/C=C/C=C/C=C/C=C/C=C/C=C/C=C/[C@H](O[C@@H]2O[C@H](C)[C@@H](O)[C@H](N)[C@@H]2O)C[C@@H]2O[C@](O)(C[C@@H](O)C[C@@H](O)[C@H](O)CC[C@@H](O)C[C@@H](O)CC(=O)O[C@H]1C)C[C@H](O)[C@H]2C(=O)O [Amphotericin B, reference compound] | – | 0.1 ± 0.04 | – | – | – | – | –
CN1CCN(CCCNCc2cccc(-c3cc(-c4cccc(CNCCCN5CCN(C)CC5)c4)c4ccccc4n3)c2)CC1 [Compound 1r, 2,4-Bis{3-[(3–(4-methylpiperazin-1-yl)propyl)aminomethyl]phenyl}quinoline] | 1.95 ± 0.774 | ≥ 10 | 1.36 ± 0.194 | 2.55 | 3.65 | 4.97 ± 0.3 | –
CSc1ccc(OCc2ncc([N+](=O)[O-])n2C)cc1 [Fexinidazole, reference compound] | – | – | 0.59 ± 0.039 | – | – | – | –
Cc1ccc(C(=O)Nc2ccc(S(=O)(=O)O)c3cc(S(=O)(=O)O)cc(S(=O)(=O)O)c23)cc1NC(=O)c1cccc(NC(=O)Nc2cccc(C(=O)Nc3cc(C(=O)Nc4ccc(S(=O)(=O)O)c5cc(S(=O)(=O)O)cc(S(=O)(=O)O)c45)ccc3C)c2)c1 [Suramine, reference compound] | – | – | 0.03 ± 0.003 | – | – | – | –

Now from value to compound, other results behind:

IC50 [1] [µM] | IC50 [2] [µM] | IC50 [3] [µM] | Structure (SMILES) | Selectivity index HepG2/3D7 [1] | Selectivity index HepG2/Tryp. [3] | CC50 at 72 h [4] [µM] | CC50 at 72 h ([4]; HepG2 cells, 72 h, read-out: Cytotoxicity to HepG2 cells CC50 values) [µM]
2.24 ± 0.435 | ≥ 10 | 2.05 ± 0.535 | CN1CCN(CCCNCc2cccc(-c3nc(-c4cccc(CNCCCN5CCN(C)CC5)c4)c4ccccc4n3)c2)CC1 [Compound 3t, 2,4-Bis{3-[(3–(4-methylpiperazin-1-yl)propyl)aminomethyl]phenyl}quinazoline] | 13.20 | 14.42 | 29.6 ± 2.2 | –
2.52 ± 0.237 | ≥ 10 | 1.05 ± 0.058 | COc1ccc2c(-c3ccc(CNCCCN(C)C)cc3)nc(-c3ccc(CNCCCN(C)C)cc3)nc2c1 [Compound 3n, 7-Methoxy-2,4-bis{4-[(3-dimethylaminopropyl)aminomethyl]phenyl}quinazoline] | 1.08 | 2.58 | 2.71 ± 0.3 | –
1.06 ± 0.103 | ≥ 10 | 1.48 ± 0.178 | CN(C)CCNCc1ccc(-c2nc(-c3ccc(CNCCN(C)C)cc3)c3ccccc3n2)cc1 [Compound 3c, 2,4-Bis{4-[(2-dimethylaminoethyl)aminomethyl]phenyl}quinazoline] | 14.97 | 10.72 | 15.9 ± 1.7 | –
2.15 ± 0.106 | ≥ 10 | 0.9 ± 0.054 | CN(C)CCCCNCc1ccc(-c2nc(-c3ccc(CNCCCCN(C)C)cc3)c3ccccc3n2)cc1 [Compound 3a, 2,4-Bis{4-[(4-dimethylaminobutyl)aminomethyl]phenyl}quinazoline] | 1.96 | 4.70 | 4.23 ± 0.4 | –
1.13 ± 0.107 | ≥ 10 | 2.07 ± 0.196 | CN(C)CCCNCc1cccc(-c2nc(-c3cccc(CNCCCN(C)C)c3)c3ccccc3n2)c1 [Compound 3s, 2,4-Bis{3-[(3-dimethylaminopropyl)aminomethyl]phenyl}quinazoline] | 1.01 | 0.55 | 1.14 ± 0.4 | –
1.52 ± 0.172 | ≥ 10 | 2.39 ± 0.129 | CN1CCN(CCCNCc2ccc(-c3nc(-c4ccc(CNCCCN5CCN(C)CC5)cc4)c4ccccc4n3)cc2)CC1 [Compound 3e, 2,4-Bis{4-[(3–(4-methylpiperazin-1-yl)propyl)aminomethyl]phenyl}quinazoline] | 10.44 | 6.64 | 15.9 ± 1.7 | –
2.35 ± 0.488 | ≥ 10 | 1.86 ± 0.135 | CN1CCN(CCCCNCc2ccc(-c3nc(-c4ccc(CNCCCCN5CCN(C)CC5)cc4)c4ccccc4n3)cc2)CC1 [Compound 3d, 2,4-Bis{4-[(4–(4-methylpiperazin-1-yl)butyl)aminomethyl]phenyl}quinazoline] | 12.22 | 15.44 | 28.7 ± 1.9 | –
0.43 ± 0.142 | ≥ 10 | 0.72 ± 0.07 | c1cc(CNCCCN2CCOCC2)cc(-c2nc(-c3cccc(CNCCCN4CCOCC4)c3)c3ccccc3n2)c1 [Compound 3u, 2,4-Bis{3-[(3-morpholinopropyl)aminomethyl]phenyl}quinazoline] | 6.14 | 3.67 | 2.64 ± 0.2 | –
